Earlier results on 20 compounds are cited in PMC11938273 (Journal of Chemical Information and Modeling, 2025).

*1 amine or outer side, *2 acyl side, *3 side chain or, on linkers, in order; H or OH if unused. Where a SMILES comes first, the peptide text is derived from it. Bridges are numbered along the chain shown (N, C = ends). Roman numbers before positions name the chains, in order. [ ]: non-standard residue; d: D form. Actinocin(9to1) = Cc1c2oc3c(C)ccc(C(=O)[*:1])c3nc-2c(C(=O)[*:2])c(N)c1=O; NMeV = CN[C@H](C(=O)O)C(C)C; Sar = CNCC(=O)O

For this data set the following is noted: in vivo; cited from earlier work.
`CC[C@H]1OC(=O)[C@H](C)[C@@H](O[C@H]2C[C@@](C)(OC)[C@@H](O)[C@H](C)O2)[C@H](C)[C@@H](O[C@@H]2O[C@H](C)C[C@H](N(C)C)[C@H]2O)[C@](C)(OC)C[C@@H](C)C(=O)[C@H](C)[C@@H](O)[C@]1(C)O` (mixture of isomers) [Clarithromycin, rac-(3R,4S,5S,6R,7R,9R,11R,12R,13S,14R)-6-(((2S,3R,4S,6R)-4-(dimethylamino)-3-hydroxy-6-methyltetrahydro-2H-pyran-2-yl)oxy)-14-ethyl-12,13-dihydroxy-4-(((2R,4R,5S,6S)-5-hydroxy-4-methoxy-4,6-dimethyltetrahydro-2H-pyran-2-yl)oxy)-7-methoxy-3,5,7,9,11,13-hexamethyloxacyclotetradecane-2,10-dione]: the CNS status result was “Negative”.

Regarding `CCC(C)CCCC(=O)N[C@H](CCN)C(=O)N[C@@H](C(=O)N[C@H](CCN)C(=O)N[C@@H]1CCNC(=O)[C@H]([C@H](C)O)NC(=O)[C@@H](CCN)NC(=O)[C@@H](CCN)NC(=O)[C@@H](CC(C)C)NC(=O)[C@H](CC(C)C)NC(=O)[C@@H](CCN)NC1=O)[C@H](C)O` (mixture of isomers) [Colistin, rac-N-((R)-4-amino-1-(((2R,3S)-1-(((R)-4-amino-1-oxo-1-(((3S,6R,9R,12R,15S,18R,21R)-6,9,18-tris(2-aminoethyl)-3-((S)-1-hydroxyethyl)-12,15-diisobutyl-2,5,8,11,14,17,20-heptaoxo-1,4,7,10,13,16,19-heptaazacyclotricosan-21-yl)amino)butan-2-yl)amino)-3-hydroxy-1-oxobutan-2-yl)amino)-1-oxobutan-2-yl)-5-methylheptanamide], the CNS status result was “Negative”.

Take `C[C@@H](CN1CC(=O)NC(=O)C1)N1CC(=O)NC(=O)C1` (racemic) [Dexrazoxane, rac-(R)-4,4'-(propane-1,2-diyl)bis(piperazine-2,6-dione)]: the CNS status entry is “Negative”.

As to `C[C@H](N)[C@H](O)c1cccc(O)c1` (racemic) [Metaraminol, rac-3-((1R,2S)-2-amino-1-hydroxypropyl)phenol], the CNS status entry is listed as “Negative”.

As for `CC(C)CCCCC(=O)N[C@@H](CCN)C(=O)N[C@H](C(=O)N[C@@H](CCN)C(=O)N[C@H]1CCNC(=O)[C@H]([C@@H](C)O)NC(=O)[C@H](CCN)NC(=O)[C@H](CCN)NC(=O)[C@H](CC(C)C)NC(=O)[C@@H](Cc2ccccc2)NC(=O)[C@H](CCN)NC1=O)[C@@H](C)O` (racemic) [Polymyxin B2, rac-N-((R)-4-amino-1-(((2R,3S)-1-(((R)-4-amino-1-oxo-1-(((3R,6R,9R,12R,15S,18R,21R)-6,9,18-tris(2-aminoethyl)-15-benzyl-3-((S)-1-hydroxyethyl)-12-isobutyl-2,5,8,11,14,17,20-heptaoxo-1,4,7,10,13,16,19-heptaazacyclotricosan-21-yl)amino)butan-2-yl)amino)-3-hydroxy-1-oxobutan-2-yl)amino)-1-oxobutan-2-yl)-6-methylheptanamide], the CNS status entry was “Negative”.

For `COC(=O)[C@H](c1ccccc1)[C@H]1CCCCN1` (racemic) [Ritalin, rac-methyl (R)-2-phenyl-2-((R)-piperidin-2-yl)acetate], the CNS status result was “Positive”.

As to `COC(=O)[C@H]1[C@@H](c2ccc(I)cc2)C[C@@H]2CC[C@H]1N2CCCF` (racemic) [beta-CIT-FP, rac-methyl(1R,2S,3S,5S)-8-(3-fluoropropyl)-3-(4-iodophenyl)-8-azabicyclo[3.2.1]octane-2-carboxylate], the CNS status result is on record as “Positive”.

On to `C[N+]1(CC2CC2)CC[C@]23c4c5ccc(O)c4O[C@H]2C(=O)CC[C@@]3(O)C1C5` (stereo in doubt) [Methylnaltrexone bromide, (3S,4S,4aS,7aR,12bS)-3-(cyclopropylmethyl)-4a,9-dihydroxy-3-methyl-7-oxo-2,3,4,4a,5,6,7,7a-octahydro-1H-4,12-methanobenzofuro[3,2-e]isoquinolin-3-ium], for which the CNS status result is listed as “Negative”.

In the case of `CN1[C@H]2CC[C@@H]1[C@@H](C(=O)OCCF)[C@@H](c1ccc(I)cc1)C2` [2-FE-beta-CIT, (1R,2S,3S,5S)-2-fluoroethyl-3-(4-iodophenyl)-8-methyl-8-azabicyclo[3.2.1]octane-2-carboxylate], the CNS status entry was “Positive”.

With `CNc1ccc(-c2nc3ccc(O)cc3s2)cc1` [6-OH-BTA-1 (PiB), 2-(4-(Methylamino)phenyl)benzo[d]thiazol-6-ol], the CNS status result is recorded as “Positive”.

With `CNc1ccc(-c2nc3ccc(O)cc3s2)cc1` [6-meO-BTA-0, 2-(4-(Methylamino)phenyl)benzo[d]thiazol-6-ol], the CNS status entry is “Negative”.

Turning to `Cc1c2oc3c(C)ccc(C(=O)N[C@@H]4C(=O)N[C@H](C(C)C)C(=O)N5CCC[C@H]5C(=O)N(C)CC(=O)N(C)[C@@H](C(C)C)C(=O)O[C@@H]4C)c3nc-2c(C(=O)N[C@@H]2C(=O)N[C@H](C(C)C)C(=O)N3CCC[C@H]3C(=O)N(C)CC(=O)N(C)[C@@H](C(C)C)C(=O)O[C@@H]2C)c(N)c1=O` [Actinomycin D] (I: T[dV]P[Sar][NMeV] / II: T[dV]P[Sar][NMeV]; ester I:1-I:C, II:1-II:C; linker I:N-II:N via Actinocin(9to1)), the CNS status entry is given as “Efflux transporter substrate”.

In the case of `O=C(c1ccc(F)cc1)C1CCN(CCn2c(=S)[nH]c3ccccc3c2=O)CC1` [Altanserin, 3-[2-[4-(4-fluorobenzoyl)piperidin-1-yl]ethyl]-2-sulfanylidene-1H-quinazolin-4-one], the CNS status result is “Positive”.

Take `CN(C(=O)C(c1ccccc1)c1ccccc1)[C@H](CN1CC[C@H](O)C1)c1ccccc1` [Asimadoline, N-{(1S)-2-[(3S)-3-Hydroxy-1-pyrrolidinyl]-1-phenylethyl}-Nmethyl-2,2-diphenylacetamide]: the CNS status entry was “Efflux transporter substrate”.

Turning to `CCOC(=O)c1ncn2c1CN(C)C(=O)c1cc(N=[N+]=[N-])ccc1-2` [Azidomazenil, Ethyl-8-azido-5-methyl-6-oxo-4H-imidazo[1,5-a][1,4]benzodiazepine-3-carboxylate], the CNS status result is on record as “Positive”.

`CCCC(=O)OC1CCN(C)CC1` [BMP, 1-methylpiperidin-4-yl butyrate]: the CNS status result is “Positive”.

Take `C(=N\NC1=NCCN1)/c1c2ccccc2c(/C=N/NC2=NCCN2)c2ccccc12` [Bisantrene, N-[(E)-[10-[(E)-(4,5-dihydro-1H-imidazol-2-ylhydrazinylidene)methyl]anthracen-9-yl]methylideneamino]-4,5-dihydro-1H-imidazol-2-amine]: the CNS status result is recorded as “Efflux transporter substrate”.

As for `COC(=O)[C@H]1[C@@H](c2ccc(I)cc2)C[C@@H]2CC[C@H]1N2CCF` [CIT-FE, (1R,2S,3S,5S)-methyl 8-(2-fluoroethyl)-3-(4-iodophenyl)-8-azabicyclo[3.2.1]octane-2-carboxylate], the CNS status entry is on record as “Positive”.

As for `CCOc1nc2cccc(C(=O)O)c2n1Cc1ccc(-c2ccccc2-c2nnn[nH]2)cc1` [Candesartan, 1-((2'-(2H-tetrazol-5-yl)-[1,1'-biphenyl]-4-yl)methyl)-2-ethoxy-1H-benzo[d]imidazole-7-carboxylic acid], the CNS status result is “Negative”.

`CC(C)NCC(O)COc1cccc2[nH]c3ccccc3c12` (centres unmarked) [Carazolol, 1-((9H-carbazol-4-yl)oxy)-3-(isopropylamino)propan-2-ol]: the CNS status result is “Positive”.
